Data from US20160242416A1, “FUNGICIDAL ISOXAZOLINE CARBINOLS” (E I DU PONT DE NEMOURS AND COMPANY, priority 2015, published 2016).

Key:
[1] = tested on: Stagonospora nodorum; experiment: Test D: wheat glume blotch, preventive spray on wheat seedlings; conditions: 10 ppm; wheat glume blotch; 100 = 100% disease control, 0 = no control
From the text: General protocol for preparing test solutions for Tests A-G: the test compounds were first dissolved in acetone in an amount equal to 3% of the final volume and then suspended at the desired concentration (in ppm) in acetone and purified water (50/50 mix by volume) containing 250 ppm of the surfactant PEG400 (polyhydric alcohol esters). The resulting test suspensions were then used in Tests A-G. Compounds were sprayed at a concentration of 50 ppm (*) or 10 ppm to the point of run-off on the test plants, the equivalent of a rate of 200 g/ha or 40 g/ha, respectively.
The test solution was sprayed to the point of run-off on wheat seedlings. The following day the seedlings were inoculated with a spore suspension of Stagonospora nodorum (also known as Septoria nodorum; the causal agent of wheat glume blotch) and incubated in a saturated atmosphere at 20° C. for 48 h, and then moved to a growth chamber at 20° C. for 6 days, after which time visual disease ratings were made.
Compounds with an asterisks (*) were applied at a concentration of 50 ppm, otherwise test solutions were applied at 10 ppm.

[2] = tested on: Erysiphe graminis f sp. tritici; experiment: Test G: wheat powdery mildew, preventive spray on wheat seedlings; conditions: 10 ppm; wheat powdery mildew; 100 = 100% disease control, 0 = no control
[3] = tested on: Zymoseptoria tritici; experiment: Test E: wheat leaf blotch, preventive spray on wheat seedlings; conditions: 10 ppm; wheat leaf blotch; 100 = 100% disease control, 0 = no control
[4] = tested on: Puccinia recondita f sp. tritici; experiment: Test F: wheat leaf rust, preventive spray on wheat seedlings; conditions: 10 ppm; wheat leaf rust; 100 = 100% disease control, 0 = no control
[5] = tested on: Botrytis cinerea; experiment: Test B: gray mold, preventive spray on tomato seedlings; conditions: 10 ppm; gray mold on tomato; 100 = 100% disease control, 0 = no control

| SMILES | Test D rating (% disease control) [1] | Test G rating (% disease control) [2] | Test E rating (% disease control) [3] | Test F rating (% disease control) [4] | Test B rating (% disease control) [5] |
| --- | --- | --- | --- | --- | --- |
| CC(C)(C)C(O)(Cn1cncn1)C1=NOC(CSc2ccc(Cl)cc2)C1 (single isomer, unassigned) [Compound 26] | 70% | 89% | 0% | 74% | 92% |
| CSc1ccc(C2CC(C(O)(Cn3cncn3)c3ccc(Cl)cc3)=NO2)cc1 (single isomer, unassigned) [Compound 107] | 32% | 99% | 58% | 100% | 0% |
| OC(Cn1cncn1)(C1=NOC(c2ccc(Cl)cc2)C1)c1ccccc1F (single isomer, unassigned) [Compound 134] | 100% | 98% | 31% | 99% | 0% |
| CCC(C)(C)C(O)(Cn1cncn1)C1=NOC(Cc2ccc(Cl)cc2)C1 (single isomer, unassigned) [Compound 17] | 98% | 100% | 7% | 100% | 51% |
| OC(Cn1cncn1)(C1=NOC(c2ccc(Oc3ccccc3)cc2)C1)c1ccc(Cl)cc1 (single isomer, unassigned) [Compound 143] | 0% | 76% | 1% | 67% | 0% |
| OC(Cn1cncn1)(C1=NOC(c2ccc(Cl)cc2)C1)c1ccccc1Cl (single isomer, unassigned) [Compound 150] | 100% | 99% | 42% | 100% | 0% |
| OC(Cn1cncn1)(C1=NOC(c2ccc(C(F)(F)F)cc2)C1)c1ccc(Cl)cc1 (single isomer, unassigned) [Compound 146] | 100% | 99% | 99% | 100% | 0% |
| OC(Cn1cncn1)(C1=NOC(COC2CCCCC2)C1)c1ccc(Cl)cc1 (single isomer, unassigned) [Compound 90] | 59% | 64% | 0% | 0% | 0% |
| C[S+]([O-])c1ccc(C2CC(C(O)(Cn3cncn3)c3ccc(Cl)cc3)=NO2)cc1 (single isomer, unassigned) [Compound 111] | 0% | 98% | 9% | 100% | 0% |
| OC(Cn1cncn1)(C1=NOC(c2ccc(Cl)cc2)C1)C12CC3CC(CC(C3)C1)C2 (single isomer, unassigned) [Compound 39] | 87% | 73% | 18% | 0% | 0% |
| CC(C)(C)CC(O)(Cn1cncn1)C1=NOC(Cc2ccc(Cl)cc2)C1 (single isomer, unassigned) [Compound 207] | 99% | 100% | 44% | 100% | 0% |
| OC(Cn1cncn1)(C1=NOC(c2ccc(Cl)cc2)C1)c1cccc(Oc2ccccc2)c1 (single isomer, unassigned) [Compound 109] | 59% | 93% | 66% | 100% | 0% |
| CC(C)(C)C(O)(Cn1cncn1)C1=NOC(COc2ccc(Cl)cn2)C1 (single isomer, unassigned) [Compound 96] | 100% | 99% | 5% | 100% | 85% |
| OC(Cn1cncn1)(C1=NOC(c2ccc(C(F)(F)F)cc2)C1)c1ccc(C(F)(F)F)cc1 (single isomer, unassigned) [Compound 153] | 0% | 100% | 93% | 100% | 0% |
| OC(Cn1cncn1)(C1=NOC(COc2ccc3c(c2)OCO3)C1)c1ccc(Cl)cc1 (single isomer, unassigned) [Compound 44] | 28% | 64% | 2% | 0% | 0% |
| CC(C)(C)CC1CC(C(O)(Cn2cncn2)C(C)(C)C)=NO1 (single isomer, unassigned) [Compound 77] | 0% | 13% | 0% | 0% | 0% |
| OC(Cn1cncn1)(C1=NOC(Cc2ccc(C(F)(F)F)cc2)C1)c1ccc(Cl)cc1 (single isomer, unassigned) [Compound 202] | 59% | 99% | 21% | 100% | 0% |
| OC(Cn1cncn1)(C1=NOC(c2ccc(Cl)cc2)C1)c1cccc(Oc2ccccc2)c1 (single isomer, unassigned) [Compound 110] | 0% | 48% | 72% | 21% | 0% |
| CC(C)(C)C(O)(Cn1cncn1)C1=NOC(COc2ccc(-n3cccn3)cc2)C1 (single isomer, unassigned) [Compound 28] | 39% | 99% | 0% | 0% | 24% |
| OC(Cn1cncn1)(C1=NOC(c2ccc(C(F)(F)F)cc2)C1)c1ccc(Cl)cc1 (single isomer, unassigned) [Compound 147] | 73% | 90% | 17% | 100% | 0% |
| OC(Cn1cncn1)(C1=NOC(COc2ccc(Cl)nc2)C1)c1ccc(Cl)cc1 (single isomer, unassigned) [Compound 102] | 0% | 69% | 0% | 18% | 0% |
| CC(C)(C)C(O)(Cn1cncn1)C1=NOC(CCc2ccc(Cl)cc2)C1 (single isomer, unassigned) [Compound 15] | 100% | 100% | 19% | 100% | 100% |
| CC(C)(C)C(O)(Cn1cncn1)C1=NOC(CSc2ccccc2)C1 (single isomer, unassigned) [Compound 74] | 0% | 56% | 13% | 0% | 44% |
| C[S+]([O-])c1ccc(C2CC(C(O)(Cn3cncn3)c3ccc(Cl)cc3)=NO2)cc1 (single isomer, unassigned) [Compound 112] | 0% | 69% | 80% | 65% | 0% |
| CC(C)(C)C(O)(Cn1cncn1)C1=NOC(COC2CCCCC2)C1 (single isomer, unassigned) [Compound 91] | 20% | 56% | 2% | 0% | 0% |
| CC1(C(O)(Cn2cncn2)C2=NOC(c3ccc(Cl)cc3)C2)CC1 (single isomer, unassigned) [Compound 127] | 98% | 98% | 9% | 98% | 0% |
| OC(Cn1cncn1)(C1=NOC(c2ccc(Cl)cc2)C1)c1ccc(F)cc1 (single isomer, unassigned) [Compound 161] | 0% | 94% | 0% | 28% | 0% |
| CC(C)(C)CC1CC(C(O)(Cn2cncn2)C(C)(C)C)=NO1 (single isomer, unassigned) [Compound 78] | 0% | 0% | 0% | 0% | 0% |
